{
  "source": "patent US20040166099A1",
  "about": "“Molecules preferentially associated with effector T cells and methods of their use” (TolerRx, Inc., priority 2002, published 2004)",
  "format_in_all_cases": "cell-based, human",
  "key": {"Th1 cells": {"system": "Th1 cells", "assay": "Proliferation (3H-thymidine incorporation) of differentiated Th1 cells stimulated with CD3 and CD28", "source_text": "(§1) FIG. 4 depicts inhibition of proliferation of Th1 and Th2 cells, but not regulatory T cells, by Rottlerin, a commercially available inhibitor of PKC enzymes. Differentiated cells were stimulated with CD3 and CD28 in the presence of absence of the PKC inhibitor Rottlerin. Incorporation of ^3H-thymidine was used to monitor cell proliferation. Proliferation of each cell type is normalized to the proliferation observed in the absence of inhibitor.\n(§2) Differentiated cell lines were produced from cells prepared from human cord blood or peripheral blood CD4+CD45RA+naïve T cells by a variety of methods, including flow cytometry and magnetic bead separations. Purity of the starting populations was >95%. Cells were then stimulated by CD3 and CD28 antibodies in RPMI 1640 with 10% FCS and 1% Human AB serum with defined mixtures of cytokines and neutralizing antibodies to cytokines to produce the differentiated cell types. Th1 cells were produced by culture with IL12 (62 U/ml) and anti-IL4 (0.2 ug/ml); Th2 cells were produced by culture in IL4(145 U/ml) and anti-IL12 (10 ug/ml) and anti-IFNγ (10 ug/ml); and regulatory T cells were produced by culture in TGFβ (32 U/ml), IL9 (42 U/ml), anti-IL4 (10 ug/ml) and anti-IL12 (10 ug/ml) and anti-IFNγ(10 ug/ml). (Note: anti-IL12 was not used in all experiments). All cultures were supplemented with IL2 (65 U/ml) and IL15 (4500 U/ml). Cells were split into larger culture dishes as warranted by cell division. At the conclusion of one round of cell differentiation (7-12 days), cells were harvested for preparation of total RNA for use in the gene chip experiments.\n(§3) Differentiated cells, prepared as above, were re-stimulated using CD3 and CD28 in the presence of a range of concentrations of the commercial inhibitor Rottlerin.\n(§4) Three days after initiation of the cultures, three replicate tissue culture wells for each condition for each cell type were fed with media containing ^3H-thymidine to monitor cell division. Wells were harvested 18 hr later and incorporated ^3H was measured by scintillation counting."}, "Th2 cells": {"system": "Th2 cells", "assay": "Proliferation (3H-thymidine incorporation) of differentiated Th2 cells stimulated with CD3 and CD28", "source_text": "as §1, §2, §3, §4"}, "[1]": {"system": "regulatory T cells (TGFβ-derived Treg cells)", "assay": "Proliferation (3H-thymidine incorporation) of differentiated regulatory T cells stimulated with CD3 and CD28", "source_text": "as §1\nDifferentiated cell lines were produced from cells prepared from human cord blood or peripheral blood CD4+CD45RA+naïve T cells by a variety of methods, including flow cytometry and magnetic bead separations. Purity of the starting populations was >95%. Cells were then stimulated by CD3 and CD28 antibodies in RPMI 1640 with 10% FCS and 1% Human AB serum with defined mixtures of cytokines and neutralizing antibodies to cytokines to produce the differentiated cell types. […]\nas §4"}, "[2]": {"settings": "FIG. 5 legend, representative data"}, "[3]": {"settings": "wells coated with CD3 and CD28, 3H-thymidine fed at day 3, harvested 18 hr later, increasing concentrations of inhibitor, FIG. 5"}},
  "note": "“Also recorded” adds a separate entry of the source.",
  "data": [
    {"compound": "CC(=O)c1c(O)c(C)c(O)c(Cc2c(O)c3c(c(C(=O)/C=C/c4ccccc4)c2O)OC(C)(C)C=C3)c1O", "note": "[Rottlerin]", "values": [
      {"measurement": "inhibition of cell division / proliferation of Th1 cells", "setting": "Th1 cells; Th1 cells re-stimulated using CD3 and CD28, 5 uM, three of three experiments, FIG. 4", "result": "inhibition; also recorded: inhibited"},
      {"measurement": "inhibition of cell division / proliferation of Th2 cells", "setting": "Th2 cells; Th2 cells re-stimulated using CD3 and CD28, 5 uM, three of three experiments, FIG. 4", "result": "inhibition; also recorded: inhibited"},
      {"measurement": "inhibition of proliferation of regulatory T cells", "setting": "[1]; regulatory T cells re-stimulated using CD3 and CD28, range of concentrations, three of three experiments, FIG. 4", "result": "not and did not inhibit"}
    ]},
    {"compound": "NH2-RQIKIWFQNRRMKWKKMDQNMFRNFSFNMP-COOH (H-RQIKIWFQNRRMKWKKMDQNMFRNFSFNMP-OH) [antennapedia-PKCθ peptide]", "values": [
      {"measurement": "inhibition of proliferation of Th1 cells (in words)", "setting": "Th1 cells; [2]", "result": "selectively inhibits"},
      {"measurement": "proliferation of Th1 cells relative to control", "setting": "Th1 cells; [3]", "result": "16 % of control levels"},
      {"measurement": "inhibition of proliferation of Th2 cells (in words)", "setting": "Th2 cells; [2]", "result": "selectively inhibits"},
      {"measurement": "proliferation of Th2 cells relative to control", "setting": "Th2 cells; [3]", "result": "16 % of control levels"},
      {"measurement": "inhibition of proliferation of TGFβ-derived Treg cells (in words)", "setting": "[1]; [2]", "result": "not"}
    ]}
  ]
}
